Measured values taken from PMC11558128 (Advanced Science, 2024).
Positions of bridges follow the written chain, without caps; N, C: chain ends. Residues, ends and D or L forms follow the SMILES beside them.

Assays:
[1] = test system: ICR mice; assay: Rotarod test; type: in vivo, mouse; details: 2 mg kg-1 i.p.; vs saline; n = 5-6, p > 0.9999
Method: In Vivo Safety Evaluation: Rotarod Test: ICR mice (weight 18–20 g, 6–8 weeks, both sex) were trained on a rotarod at a constant speed of 20 rpm for 8 min per day. […] On the 5th day, the remaining mice were randomly divided into two groups: Saline (3 males and 2 females) and 2 mg kg^−1 mGpTx1‐SA (3 males and 3 females). All groups were administered intraperitoneally and allowed 20 minutes for the drug to take effect before behavioral tests were conducted. The total motor time of the animals during 300 s was recorded for analysis.

[2] = test system: native Kv channels of rat primary cardiomyocytes; details: 5 µM; n = 5
[3] = molecular target: T1, mKv4.1 (Mus musculus, UniProt Q03719); assay: Whole-cell patch clamp of mKv4.1 currents; type: cell-based; details: mean ± S.E.M., n = 5, SEM
T1 construct: expressed in transfected cells; host or cells: HEK293T
T1 sequence (Q03719 whole entry): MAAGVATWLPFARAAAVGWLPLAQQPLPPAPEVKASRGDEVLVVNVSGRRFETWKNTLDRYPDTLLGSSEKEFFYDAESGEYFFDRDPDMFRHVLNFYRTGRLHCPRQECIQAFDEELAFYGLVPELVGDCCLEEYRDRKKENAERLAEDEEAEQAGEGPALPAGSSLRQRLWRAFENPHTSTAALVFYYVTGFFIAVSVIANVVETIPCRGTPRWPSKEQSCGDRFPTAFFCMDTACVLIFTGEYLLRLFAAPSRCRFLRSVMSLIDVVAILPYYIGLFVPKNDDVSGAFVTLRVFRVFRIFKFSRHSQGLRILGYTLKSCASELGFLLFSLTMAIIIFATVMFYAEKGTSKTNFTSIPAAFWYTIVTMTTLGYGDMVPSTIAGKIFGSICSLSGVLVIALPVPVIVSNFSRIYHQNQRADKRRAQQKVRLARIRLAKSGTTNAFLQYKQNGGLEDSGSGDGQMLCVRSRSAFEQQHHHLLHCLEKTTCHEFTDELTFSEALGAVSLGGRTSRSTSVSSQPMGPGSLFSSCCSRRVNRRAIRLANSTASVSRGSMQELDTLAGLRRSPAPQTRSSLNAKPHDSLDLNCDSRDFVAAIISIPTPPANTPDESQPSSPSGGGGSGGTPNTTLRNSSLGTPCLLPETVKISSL

Row | Compound | balance time of mice on the rotarod test [1] | inhibition of Kv currents in the primary cardiomyocytes [2] | IC50 [3]
1 | CC[C@H](C)[C@@H]1NC(=O)[C@@H]2CSSC[C@@H]3NC(=O)[C@H](C(C)C)NC(=O)[C@H](CC(C)C)NC(=O)[C@H](CC(N)=O)NC(=O)[C@@H]4CCCN4C(=O)[C@H](CCCNC(=N)N)NC(=O)[C@H](CSSC[C@H](NC(=O)[C@@H](N)CC(=O)O)C(=O)N[C@@H](CC(C)C)C(=O)NCC(=O)N[C@@H](C)C(=O)N[C@@H](Cc4ccccc4)C(=O)N[C@@H](CCCNC(=N)N)C(=O)N[C@@H](CCCCN)C(=O)N2)NC(=O)[C@H](CSSC[C@@H](C(=O)N[C@@H](CCCCN)C(=O)N[C@@H](Cc2ccc(O)cc2)C(=O)N[C@H](C(=O)N[C@@H](Cc2ccccc2)C(N)=O)C(C)C)NC(=O)[C@H](Cc2c[nH]c4ccccc24)NC(=O)[C@H](CCCNC(=N)N)NC(=O)[C@H](Cc2c[nH]cn2)NC(=O)[C@H](C)NC(=O)[C@H](CO)NC(=O)[C@H](CO)NC3=O)NC(=O)[C@H](CCCCN)NC(=O)[C@H](CC(=O)O)NC(=O)[C@H](CC(N)=O)NC(=O)[C@H](CC(=O)O)NC(=O)[C@@H]2CCCN2C1=O [mGpTx1-SA] (H-DCLGAFRKCIPDNDKCCRPNLVCSSAHRWCKYVF-NH2; disulfide 2-17, 9-23, 16-30) | did not affect | did not inhibit | –
2 | CSCC[C@@H]1NC(=O)CNC(=O)[C@H](CCC(=O)O)NC(=O)[C@@H]2CSSC[C@H](NC(=O)[C@@H](N)Cc3ccc(O)cc3)C(=O)N[C@@H](CCC(N)=O)C(=O)N[C@@H](CCCCN)C(=O)N[C@@H](Cc3c[nH]c4ccccc34)C(=O)N[C@@H](CCSC)C(=O)N[C@@H](Cc3c[nH]c4ccccc34)C(=O)N[C@@H]([C@@H](C)O)C(=O)N[C@H]3CSSC[C@H](NC(=O)[C@H](C(C)C)NC1=O)C(=O)N[C@@H](CCCNC(=N)N)C(=O)N[C@@H](CC(C)C)C(=O)N[C@@H](Cc1c[nH]c4ccccc14)C(=O)N[C@H](C(=O)N[C@@H](CCCCN)C(=O)N[C@@H](CCCCN)C(=O)N[C@@H](CCCCN)C(=O)N[C@@H](CC(C)C)C(=O)N[C@@H](Cc1c[nH]c4ccccc14)C(=O)O)CSSC[C@H](NC(=O)[C@H](CCCCN)NC(=O)[C@H](CCCNC(=N)N)NC(=O)[C@H](CCC(=O)O)NC(=O)[C@H](CO)NC(=O)[C@H](CC(=O)O)NC3=O)C(=O)N2 [ProTx-II] | – | – | 0.0381 ± 0.0053 µM
